Measurements as given in patent US9980943B2, “Methods of treating muscular dystrophy” (BOARD OF REGENTS OF THE NEVADA SYSTEM OF HIGHER EDUCATION, …, priority 2013, dated 2018).

Tests used:
Type in all cases: cell-based, mouse
[1] = tested on: α7 integrin (LacZ reporter in α7βgal+/− myoblasts); test: Myoblast α7+/LacZ integrin FDG assay (Burkin assay in myoblasts, 96-well); conditions: for Burkin Assay in Myoblasts, value relative to DMSO: SU9516 analogs, N=3-6; for Burkin Assay in Myoblasts, value relative to DMSO / Burkin Assay in Myoblasts, signal relative to DMSO: 96-well; for Burkin Assay in Myoblasts, signal relative to DMSO: α7+/LacZ myoblasts
[2] = tested on: α7 integrin (LacZ reporter in α7+/LacZ myotubes); test: Myotube α7 integrin FDG assay (Burkin assay in myotubes, 96-well); conditions: for Burkin Assay in Myotubes, value relative to DMSO: SU9516 analogs, 96-well, N=3-6
[3] = tested on: β-galactosidase in CMV-LacZ C2C12 myoblasts; test: CMV-LacZ secondary screen in C2C12 myoblasts (β-Gal stabilizing assay); conditions: for CMV-LACZ in Myoblasts, value relative to DMSO: SU9516 analogs, C2C12 CMV-LacZ, N=2; for CMV-LACZ in Myoblasts (β-galactosidase activity relative to DMSO): CMV-LacZ C2C12 myoblasts
Summary of the method: (§1)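 β-gal stabilization was measured in C2C12 myoblasts or myotubes stably transfected with a CMV-driven LacZ construct, using the FDG β-gal assay. Compounds were tested in dose-response at 0.5, 1, 5, 10, 20 and 40 μM, with two replicates per point.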

[4] = tested on: β-galactosidase in CMV-LacZ C2C12 myotubes; test: CMV-LacZ secondary screen in C2C12 myotubes (β-Gal stabilizing assay); conditions: for CMV-LACZ in Myotubes, value relative to DMSO: SU9516 analogs, C2C12 CMV-LacZ, N=2; for CMV-LACZ in Myotubes, signal relative to DMSO: C2C12 CMV-LacZ myotubes, fold relative to DMSO
Summary of the method: as §1

[5] = Mus musculus, Myoblast, 48 h, read-out: Burkin Assay in Myoblasts, value relative to DMSO

O=C1Nc2ccccc2/C1=C/c1ccccc1Cl [MLS001202425-01]
Burkin Assay in Myoblasts, value relative to DMSO ([1]; 0.5 uM): 1.2214
Burkin Assay in Myoblasts, value relative to DMSO ([1]; 1 uM): 1.219
Burkin Assay in Myoblasts, value relative to DMSO ([1]; 5 uM): 0.9673
Burkin Assay in Myoblasts, value relative to DMSO ([1]; 10 uM): 0.8645
Burkin Assay in Myoblasts, value relative to DMSO ([1]; 20 uM): 0.7465
Burkin Assay in Myoblasts, value relative to DMSO ([1]; 40 uM): 0.3445
Burkin Assay in Myotubes, value relative to DMSO ([2]; 0.5 uM): 1.148
Burkin Assay in Myotubes, value relative to DMSO ([2]; 1 uM): 1.205
Burkin Assay in Myotubes, value relative to DMSO ([2]; 5 uM): 0.9499
Burkin Assay in Myotubes, value relative to DMSO ([2]; 10 uM): 0.8033
Burkin Assay in Myotubes, value relative to DMSO ([2]; 20 uM): 0.5178
Burkin Assay in Myotubes, value relative to DMSO ([2]; 40 uM): 0.354
CMV-LACZ in Myoblasts, value relative to DMSO ([3]; 0.5 uM): 1.0625
CMV-LACZ in Myoblasts, value relative to DMSO ([3]; 1 uM): 1.0919
CMV-LACZ in Myoblasts, value relative to DMSO ([3]; 5 uM): 0.8675
CMV-LACZ in Myoblasts, value relative to DMSO ([3]; 10 uM): 1.1386
CMV-LACZ in Myoblasts, value relative to DMSO ([3]; 20 uM): 0.9081
CMV-LACZ in Myoblasts, value relative to DMSO ([3]; 40 uM): 0.6233
CMV-LACZ in Myotubes, value relative to DMSO ([4]; 0.5 uM): 0.8793
CMV-LACZ in Myotubes, value relative to DMSO ([4]; 1 uM): 1.0185
CMV-LACZ in Myotubes, value relative to DMSO ([4]; 5 uM): 1.1496
CMV-LACZ in Myotubes, value relative to DMSO ([4]; 10 uM): 1.0423
CMV-LACZ in Myotubes, value relative to DMSO ([4]; 20 uM): 0.9918
CMV-LACZ in Myotubes, value relative to DMSO ([4]; 40 uM): 0.9976

COc1ccccc1/C=C1\C(=O)Nc2ccccc21 [MLS001202634-01]
fold induction at 0.5 µM [1, 5]: 1.21
fold induction at 1 µM [1, 5]: 1.1
fold induction at 5 µM [1, 5]: 1.14
fold induction at 10 µM [1, 5]: 1.31
fold induction at 20 µM [1, 5]: 0.994
fold induction at 40 µM [1, 5]: 0.931
Burkin Assay in Myotubes, value relative to DMSO ([2]; 0.5 uM): 0.9928
Burkin Assay in Myotubes, value relative to DMSO ([2]; 1 uM): 1.1156
Burkin Assay in Myotubes, value relative to DMSO ([2]; 5 uM): 0.9675
Burkin Assay in Myotubes, value relative to DMSO ([2]; 10 uM): 1.139
Burkin Assay in Myotubes, value relative to DMSO ([2]; 20 uM): 0.9473
Burkin Assay in Myotubes, value relative to DMSO ([2]; 40 uM): 1.289
CMV-LACZ in Myoblasts, value relative to DMSO ([3]; 0.5 uM): 1.0500
CMV-LACZ in Myoblasts, value relative to DMSO ([3]; 1 uM): 1.0071
CMV-LACZ in Myoblasts, value relative to DMSO ([3]; 5 uM): 1.1287
CMV-LACZ in Myoblasts, value relative to DMSO ([3]; 10 uM): 1.0990
CMV-LACZ in Myoblasts, value relative to DMSO ([3]; 20 uM): 1.0817
CMV-LACZ in Myoblasts, value relative to DMSO ([3]; 40 uM): 0.9217
CMV-LACZ in Myotubes, value relative to DMSO ([4]; 0.5 uM): 0.9582
CMV-LACZ in Myotubes, value relative to DMSO ([4]; 1 uM): 1.0073
CMV-LACZ in Myotubes, value relative to DMSO ([4]; 5 uM): 1.2348
CMV-LACZ in Myotubes, value relative to DMSO ([4]; 10 uM): 0.9661
CMV-LACZ in Myotubes, value relative to DMSO ([4]; 20 uM): 0.9750
CMV-LACZ in Myotubes, value relative to DMSO ([4]; 40 uM): 0.9340

COc1cccc(CN2CCN(Cc3ccco3)CC2)c1.O=C(O)C(=O)O [MLS001211139-01]
Burkin Assay in Myoblasts, signal relative to DMSO ([1]; 0.5 uM): 1.2392
Burkin Assay in Myoblasts, signal relative to DMSO ([1]; 1 uM): 1.136
Burkin Assay in Myoblasts, signal relative to DMSO ([1]; 5 uM): 1.065
Burkin Assay in Myoblasts, signal relative to DMSO ([1]; 10 uM): 0.9683
Burkin Assay in Myoblasts, signal relative to DMSO ([1]; 20 uM): 1.218
Burkin Assay in Myoblasts, signal relative to DMSO ([1]; 40 uM): 1.216
Burkin Assay in Myotubes, α7 integrin LacZ reporter signal relative to DMSO ([2]; 0.5 uM): 1.167
Burkin Assay in Myotubes, α7 integrin LacZ reporter signal relative to DMSO ([2]; 1 uM): 1.288
Burkin Assay in Myotubes, α7 integrin LacZ reporter signal relative to DMSO ([2]; 5 uM): 1.003
Burkin Assay in Myotubes, α7 integrin LacZ reporter signal relative to DMSO ([2]; 10 uM): 0.9425
Burkin Assay in Myotubes, α7 integrin LacZ reporter signal relative to DMSO ([2]; 20 uM): 0.8283
Burkin Assay in Myotubes, α7 integrin LacZ reporter signal relative to DMSO ([2]; 40 uM): 0.7547
CMV-LACZ in Myoblasts (β-galactosidase activity relative to DMSO) ([3]; 0.5 uM): 0.9691
CMV-LACZ in Myoblasts (β-galactosidase activity relative to DMSO) ([3]; 1 uM): 0.7347
CMV-LACZ in Myoblasts (β-galactosidase activity relative to DMSO) ([3]; 5 uM): 0.9500
CMV-LACZ in Myoblasts (β-galactosidase activity relative to DMSO) ([3]; 10 uM): 0.8608
CMV-LACZ in Myoblasts (β-galactosidase activity relative to DMSO) ([3]; 20 uM): 1.0659
CMV-LACZ in Myoblasts (β-galactosidase activity relative to DMSO) ([3]; 40 uM): 0.8744
CMV-LACZ in Myotubes, signal relative to DMSO ([4]; 0.5 uM): 0.9281
CMV-LACZ in Myotubes, signal relative to DMSO ([4]; 1 uM): 0.8948
CMV-LACZ in Myotubes, signal relative to DMSO ([4]; 5 uM): 1.1755
CMV-LACZ in Myotubes, signal relative to DMSO ([4]; 10 uM): 1.0196
CMV-LACZ in Myotubes, signal relative to DMSO ([4]; 20 uM): 0.8259
CMV-LACZ in Myotubes, signal relative to DMSO ([4]; 40 uM): 1.0224
